Converted amounts (≈) assume the structure as drawn. The source made the active and inactive calls. The calls are words filed in the database; no cut-off is given here.
How the values were obtained:
[1] = Octanol-buffer partition coefficient, log D of the compound at pH 7.4 after 30 mins by shake flask method; format: physicochemical
[2] = Half life at pH 6; format: physicochemical; conditions: buffer
[3] = Half life in rat plasma; format: ADME, cell-free
[4] = Clearance in rat; format: ADME, organism-based; conditions: in vivo
Hexokinase-4 = target: T1, Hexokinase-4 (Homo sapiens, UniProt P35557); test: Activation of glucokinase (unknown origin)
T1 sequence (P35557 whole entry): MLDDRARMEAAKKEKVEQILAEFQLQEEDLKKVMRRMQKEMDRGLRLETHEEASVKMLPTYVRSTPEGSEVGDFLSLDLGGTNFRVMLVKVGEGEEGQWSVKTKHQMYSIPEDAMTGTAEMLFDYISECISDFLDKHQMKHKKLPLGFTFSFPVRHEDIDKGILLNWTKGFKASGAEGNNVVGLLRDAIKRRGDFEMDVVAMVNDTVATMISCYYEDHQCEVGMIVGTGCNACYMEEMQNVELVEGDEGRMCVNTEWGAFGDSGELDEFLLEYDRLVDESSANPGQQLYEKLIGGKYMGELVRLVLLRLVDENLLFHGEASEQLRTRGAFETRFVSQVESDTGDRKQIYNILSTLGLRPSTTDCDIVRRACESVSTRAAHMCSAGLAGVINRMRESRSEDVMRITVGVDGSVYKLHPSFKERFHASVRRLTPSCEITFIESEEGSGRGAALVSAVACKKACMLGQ

Rattus norvegicus [5] = organism: Rattus norvegicus; test: Unbound clearance in rat; format: ADME, organism-based; conditions: in vivo
Canis familiaris = organism: Canis familiaris; test: Unbound clearance in dog; format: ADME, organism-based, Canis lupus familiaris; conditions: in vivo
[6] = target: Voltage-gated inwardly rectifying potassium channel KCNH2 (Homo sapiens, UniProt Q12809); test: Inhibition of human ERG by electrophysiological analysis
Chain of Voltage-gated inwardly rectifying potassium channel KCNH2 (Q12809 whole entry): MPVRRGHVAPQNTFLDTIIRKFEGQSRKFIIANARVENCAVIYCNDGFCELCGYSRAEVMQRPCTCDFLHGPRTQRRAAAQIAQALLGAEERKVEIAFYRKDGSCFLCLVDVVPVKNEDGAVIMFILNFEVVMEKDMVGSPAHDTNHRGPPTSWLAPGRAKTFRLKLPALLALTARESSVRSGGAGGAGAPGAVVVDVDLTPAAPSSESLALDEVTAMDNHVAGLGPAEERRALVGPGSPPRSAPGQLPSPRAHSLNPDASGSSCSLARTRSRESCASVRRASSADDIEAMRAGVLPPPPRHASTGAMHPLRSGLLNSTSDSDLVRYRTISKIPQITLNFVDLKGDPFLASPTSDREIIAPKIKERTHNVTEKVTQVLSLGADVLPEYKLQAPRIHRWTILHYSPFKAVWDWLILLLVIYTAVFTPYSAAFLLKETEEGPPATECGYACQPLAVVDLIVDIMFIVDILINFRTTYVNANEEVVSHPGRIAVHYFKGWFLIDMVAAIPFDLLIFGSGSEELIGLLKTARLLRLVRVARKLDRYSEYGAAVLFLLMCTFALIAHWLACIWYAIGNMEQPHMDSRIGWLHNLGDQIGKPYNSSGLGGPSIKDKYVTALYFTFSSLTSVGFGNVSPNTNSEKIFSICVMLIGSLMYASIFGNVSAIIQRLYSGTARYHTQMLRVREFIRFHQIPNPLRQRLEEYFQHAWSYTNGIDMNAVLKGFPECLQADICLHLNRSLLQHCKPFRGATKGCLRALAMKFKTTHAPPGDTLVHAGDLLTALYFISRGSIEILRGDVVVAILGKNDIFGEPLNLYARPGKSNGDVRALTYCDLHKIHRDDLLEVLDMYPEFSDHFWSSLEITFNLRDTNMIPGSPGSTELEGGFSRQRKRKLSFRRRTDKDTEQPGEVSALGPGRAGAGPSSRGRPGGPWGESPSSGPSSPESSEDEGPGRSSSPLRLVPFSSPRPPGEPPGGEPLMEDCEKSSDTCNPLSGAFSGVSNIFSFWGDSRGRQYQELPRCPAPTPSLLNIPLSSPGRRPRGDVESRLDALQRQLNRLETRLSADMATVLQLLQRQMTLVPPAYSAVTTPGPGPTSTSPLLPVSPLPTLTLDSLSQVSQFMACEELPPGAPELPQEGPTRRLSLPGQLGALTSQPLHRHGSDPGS

[7] = Volume of distribution at steady state in dog; format: ADME, organism-based, Canis lupus familiaris; conditions: in vivo, read-out: Vdss
[8] = Oral bioavailability in dog; format: ADME, organism-based, Canis lupus familiaris; conditions: in vivo
[9] = Apparent permeability from apical to basolateral side in MDCK cells; format: ADME, cell-based, Canis lupus familiaris; conditions: dog
[10] = Clearance in dog; format: ADME, organism-based, Canis lupus familiaris; conditions: in vivo
[11] = Aqueous solubility in PBS buffer at pH 7.4 after 24 hrs by LC-UV analysis; format: physicochemical
[12] = Oral bioavailability in rat; format: ADME, organism-based; conditions: in vivo
[13] = Volume of distribution at steady state in rat; format: ADME, organism-based; conditions: in vivo, read-out: Vdss
Hepatocyte = test: Intrinsic clearance in rat hepatocytes measured per […] cells; format: ADME, cell-based
Rattus norvegicus [14] = test: Glucose lowering activity in Zucker rat at 3 mg/kg, po after 24 hrs; format: functional, organism-based; design: dose 3 mg/kg

| logD at 0.5 h [1] | half-life [3] [min] | clearance [4] [mL/min/kg] | EC50 (Hexokinase-4; read-out: pEC50 (converted)) [nM] | CL free (Rattus norvegicus [5]) [mL/min/kg] | SMILES | IC50 [6] [nM] | also measured |
| --- | --- | --- | --- | --- | --- | --- | --- |
| 2.3 | 19 | 50 | 398 | 190 | C[C@H](CO)OC[C@H](Oc1ncnc2c1cnn2-c1ncccc1Cl)C(=O)Nc1ccc(Cl)cn1 |  | half-life [2]: > 23 days |
| 1.9 |  | 18 |  | 39 | Cc1cnc(NC(=O)[C@H](CO[C@H](C)CO)Oc2ncnc3c2cnn3-c2c(Cl)cccc2C#N)cn1 | > 100000 | CL free (Canis familiaris): 49 mL/min/kg; Vd [7]: 0.9 L/kg; bioavailability [8]: 43%; Papp A→B [9]: 7.8 ×10⁻⁶ cm/s; clearance [10]: 18 mL/min/kg; EC50 (Hexokinase-4; read-out: EC50): 78 nM; solubility at 24 h [11]: > 50 µM; bioavailability [12]: 100%; Vd [13]: 1.5 L/kg |
|  | 10 |  |  | 1500 | Cc1ccc(NC(=O)[C@H](COC2CCC2)Oc2ncnc3c2cnn3-c2ncccc2Cl)nc1 |  | CLint (Hepatocyte): 130 µL/min/1e6 cells |
| 2.6 |  | 64 | 251 | 240 | N#Cc1ccc(NC(=O)[C@H](CN2CC(O)C2)Oc2ncnc3c2cnn3-c2c(Cl)cccc2Cl)nc1 |  |  |
| 2.1 |  | 30 | 200 | 110 | N#Cc1ccc(NC(=O)[C@H](CN2CC(O)C2)Oc2ncnc3c2cnn3-c2ccccc2Cl)nc1 | 10000 |  |
| 1.7 | 16 | 43 | 794 | 98 | C[C@H](CO)OC[C@H](Oc1ncnc2c1cnn2-c1ncccc1Cl)C(=O)Nc1ccc(F)cn1 | > 100000 | half-life [2]: > 23 days |
| 2 | 45 | 38 | 316 | 140 | O=C(Nc1ccc(Cl)cn1)[C@H](CN1CC(O)C1)Oc1ncnc2c1cnn2-c1ncccc1Cl | 50100 |  |
|  | 115 | 13 | 1580 | 28 | N#Cc1ccc(NC(=O)[C@H](COCCO)Oc2ncnc3c2cnn3-c2ncccc2Cl)nc1 |  |  |
| 2.4 |  | 45 | 631 | 220 | O=C(Nc1ccc(F)cn1)[C@H](COCCO)Oc1ncnc2c1cnn2-c1ccccc1Cl | 39800 |  |
| > 4.3 | 19 | 33 |  | 1500 | CC(C)OC[C@H](Oc1ncnc2c1cnn2-c1ccccc1Cl)C(=O)Nc1ccc(Cl)cn1 | 15800 |  |
| 2.7 |  | 42 |  | 320 | O=C(Nc1ccc(F)cn1)[C@H](CN1CC(O)C1)Oc1ncnc2c1cnn2-c1c(Cl)cccc1Cl |  | CL free (Canis familiaris): 210 mL/min/kg; Vd [7]: 1.1 L/kg; bioavailability [8]: 32%; Papp A→B [9]: 7.3 ×10⁻⁶ cm/s; clearance [10]: 30 mL/min/kg; EC50 (Hexokinase-4; read-out: EC50): 49 nM; Activity (Rattus norvegicus [14]): Active; solubility at 24 h [11]: 80 µM (≈ 41.5 µg/mL); bioavailability [12]: 28%; Vd [13]: 1.7 L/kg |
| 2 |  | 170 | 200 | 420 | O=C(Nc1ccccn1)[C@H](CN1CC(O)C1)Oc1ncnc2c1cnn2-c1ccccc1Cl | > 100000 |  |
| 3.1 | 24 | 40 | 63.1 | 310 | O=C(Nc1ccc(Cl)cn1)[C@H](CN1CC(O)C1)Oc1ncnc2c1cnn2-c1ccccc1Cl | 10000 |  |
|  | 37 |  |  | 340 | CCOC[C@H](Oc1ncnc2c1cnn2-c1ncccc1Cl)C(=O)Nc1ccc(C)cn1 |  | CLint (Hepatocyte): 12 µL/min/1e6 cells |
| 2.3 |  | 81 |  | 250 | O=C(Nc1ccccn1)[C@H](CN1CC(O)C1)Oc1ncnc2c1cnn2-c1c(F)cccc1Cl |  |  |
| 3.1 | 86 | 11 | 200 | 120 | O=C(Nc1ccc(Cl)cn1)[C@H](COCCO)Oc1ncnc2c1cnn2-c1ccccc1Cl |  |  |
| 1.8 | > 300 | 11 | 200 |  | Cc1ccc(NC(=O)[C@H](CCO)Oc2ncnc3c2cnn3-c2ncccc2Cl)nc1 |  |  |
|  | 7 | 130 |  | 600 | CC(C)OC[C@H](Oc1ncnc2c1cnn2-c1ncccc1Cl)C(=O)Nc1ccc(F)cn1 |  | half-life [2]: > 23 days |

| logD at 0.5 h [1] | half-life [3] [min] | clearance [4] [mL/min/kg] | EC50 (Hexokinase-4; read-out: pEC50 (converted)) [nM] | CL free (Rattus norvegicus [5]) [mL/min/kg] | SMILES | IC50 [6] [nM] | also measured |
| --- | --- | --- | --- | --- | --- | --- | --- |
| 2 |  | 32 | 200 | 260 | N#Cc1cccc(Cl)c1-n1ncc2c(O[C@@H](CN3CC(O)C3)C(=O)Nc3ccc(F)cn3)ncnc21 |  |  |
| 1.5 | 115 |  | > 100000 |  | C[C@@H](CO)OC[C@H](Oc1ncnc2c1cnn2-c1ncccc1Cl)C(=O)Nc1ccc(C#N)cn1 |  |  |
| 1.5 | 106 | 14 |  | 29 | C[C@H](CO)OC[C@H](Oc1ncnc2c1cnn2-c1ncccc1Cl)C(=O)Nc1ccc(C#N)cn1 |  | half-life [2]: > 23 days |
|  | > 300 |  |  |  | COC[C@H](Oc1ncnc2c1cnn2-c1ncccc1Cl)C(=O)Nc1ccc(C)cn1 |  | CLint (Hepatocyte): < 2 µL/min/1e6 cells |
| 1.3 | 62 | 21 | 316 | 31 | O=C(Nc1ccc(F)cn1)[C@H](CN1CC(O)C1)Oc1ncnc2c1cnn2-c1ncccc1Cl | > 100000 |  |
| 2.3 |  | 31 |  | 90 | O=C(Nc1ccc(F)cn1)[C@H](CN1CC(O)C1)Oc1ncnc2c1cnn2-c1ccccc1Cl | 36000 | CL free (Canis familiaris): 170 mL/min/kg; Vd [7]: 1.5 L/kg; bioavailability [8]: 12%; Papp A→B [9]: 9.8 ×10⁻⁶ cm/s; clearance [10]: 51 mL/min/kg; EC50 (Hexokinase-4; read-out: EC50): 78 nM; Activity (Rattus norvegicus [14]): Active; solubility at 24 h [11]: > 750 µM; bioavailability [12]: 75%; Vd [13]: 1.5 L/kg |
| 2.1 | 31 | 15 | 501 | 70 | O=C(Nc1ccc(Cl)cn1)[C@H](COCCO)Oc1ncnc2c1cnn2-c1ncccc1Cl | 50100 |  |
| 2.3 |  | 38 | 50.1 | 190 | O=C(Nc1ccc(F)cn1)[C@H](CN1CC(O)C1)Oc1ncnc2c1cnn2-c1c(F)cccc1Cl | 25100 |  |
|  | 22 | 21 |  | 81 | CC(C)OC[C@H](Oc1ncnc2c1cnn2-c1ncccc1Cl)C(=O)Nc1ccc(C#N)cn1 |  | half-life [2]: > 23 days |
| 1.9 |  |  | 501 |  | N#Cc1ccc(NC(=O)[C@H](CN2CC(O)C2)Oc2ncnc3c2cnn3-c2c(Cl)cccc2C#N)nc1 | 7940 |  |
| 2 |  | 19 | 501 | 140 | N#Cc1cccc(Cl)c1-n1ncc2c(O[C@@H](COCCO)C(=O)Nc3ccc(F)cn3)ncnc21 | 63100 |  |
| 2.4 | 12 |  | 3160 |  | C[C@@H](CO)OC[C@H](Oc1ncnc2c1cnn2-c1ncccc1Cl)C(=O)Nc1ccc(Cl)cn1 |  |  |
| 2.7 |  | 15 | 126 | 120 | O=C(Nc1ccc(F)cn1)[C@H](COCCO)Oc1ncnc2c1cnn2-c1c(Cl)cccc1Cl | 20000 |  |
| 2.3 |  | 225 |  | 74 | Cc1cnc(NC(=O)[C@H](CN2CC(O)C2)Oc2ncnc3c2cnn3-c2c(Cl)cccc2Cl)cn1 | 62000 | CL free (Canis familiaris): 60 mL/min/kg; Vd [7]: 1.1 L/kg; bioavailability [8]: 87%; Papp A→B [9]: 3.5 ×10⁻⁶ cm/s; clearance [10]: 18 mL/min/kg; EC50 (Hexokinase-4; read-out: EC50): 96 nM; solubility at 24 h [11]: > 750 µM; bioavailability [12]: 38%; Vd [13]: 1.2 L/kg |
| 1.7 | 1 | 38 | 2510 | 76 | C[C@@H](CO)OC[C@H](Oc1ncnc2c1cnn2-c1ncccc1Cl)C(=O)Nc1ccc(F)cn1 | > 100000 |  |
|  | 14 | 11 |  | 120 | CC(C)OC[C@H](Oc1ncnc2c1cnn2-c1ncccc1Cl)C(=O)Nc1ccc(Cl)cn1 |  | half-life [2]: > 23 days |
|  | 17 |  |  | 390 | Cc1ccc(NC(=O)[C@H](COC(C)C)Oc2ncnc3c2cnn3-c2ncccc2Cl)nc1 |  | CLint (Hepatocyte): 66 µL/min/1e6 cells |
| 2.5 |  | 15 | 200 | 110 | O=C(Nc1ccc(F)cn1)[C@H](COCCO)Oc1ncnc2c1cnn2-c1c(F)cccc1Cl | 31600 |  |
